Results reported in paper PMC12472621, “Excavating Precursors from Herb Pairs Polygala tenuifolia and Acori tatarinowii: Synthesis and Anticonvulsant Activity Evaluation of 3,4,5-Trimethoxycinnamic Acid (TMCA) Piperazine Amide Derivatives” (Pharmaceuticals, 2025).
Values joined by “and” are separate entries in the source; they are usually repeats but may differ in a detail not shown here. Equal entries are not always repeated. Where two headings read alike, the source gives them in different places.

Tests used:
scPTZ-induced seizures = test: Pentylenetetrazole (PTZ)-induced seizure test (scPTZ); assay type: in vivo; conditions: 100 mg/kg i.p., PTZ 85 mg/kg s.c., mice
Method: (§1) Male Kunming mice (23–28 g) were maintained under controlled conditions with ad libitum access to standard pellet diet and water. Test compounds were formulated immediately prior to administration in normal saline containing 0.5% Tween-80. Our experiment was authorized by the Institutional Animal Care and Use Committee of Shaanxi University of Chinese Medicine (animal ethics certificate number: SUCMDL20210309027).
Seizures were induced by subcutaneous (s.c.) administration of PTZ (85 mg/kg in 1% v/v Tween-80/0.9% NaCl), 30 min after compound treatment. This dose produces clonic seizures (≥5 s duration) in 97% of naive mice. Latency to seizure onset was recorded during continuous observation.

[1] = system: maximal electroshock (MES) induced seizures; test: Maximal electroshock (MES) test; assay type: in vivo, mice; conditions: for responders at 100 mg/kg / ED50: Mus musculus, ip; for ED50: 95% confidence intervals in parentheses
Source text: as §1
The MES test carried out following the method of Swinyard. A 60 Hz current (50 mA; 0.25 s duration) was delivered via corneal electrodes using a YSD-4G electro convulsion meter (Zhenghua Instruments, Huaibei, China, SN: ZH0056232). […] Test compounds were suspended in an identical vehicle. Protection was defined as abolition of tonic hindlimb extension.

[2] = Acute neurotoxicity screening (rotarod test); assay type: in vivo, mice; conditions: male, Kunming, mouse, in vivo, ip, 30 min post-administration, 95% confidence intervals in parentheses
Method: as §1
Neurotoxicity was assessed via a rotarod test. Mice were trained to maintain balance on a rotating rod (diameter: 4 cm; 24 rpm). Trained animals received i.p. injections of test compounds or reference drugs. At 30 min post-administration, neurologic impairment was defined as failure to remain on the rod for 3 min (≥3 falls within the testing period). Data were used to calculate TD50 values.

LDH enzyme = test: In vitro LDH assay; assay type: biochemical
Method: Employing the commercial LDH enzyme (Solarbio Life Science, Beijing, China, CAS:9001-60-9, Lot. Document No. 14240222001) includes a colorimetric assay kit designed to assess the synthesized substances’ capacity to suppress the LDH enzyme, using established techniques with slight alterations. In summary, a 96-well microplate was filled with 30 μL of LDH enzyme (300 U/mL) and 70 μL of the inhibitor mixture (0.1 mM in final concentration). Following a 10 min pre-incubation process at ambient temperature, […] of NADH (0.2 mM) was introduced. Subsequently, each well received 40 μL of phosphate buffer (20 mM, pH 6.8), reaching a total volume of 250 μL, followed by a 10 min incubation of the assay plate at 28 °C. Subsequently, […] absorbance was gauged at 340 nm utilizing a SpectraMax 190 Absorbance Microplate Reader (Molecular Devices, San Jose, CA, USA). […] In the initial screening, the level of suppression by the test substances was denoted as a percentage (%). The calculation for the LDH inhibition ratio was as follows:Inhibition (%) = [(Asample − Ablank)/Acontrol] × 100%
Asample denotes the OD340 absorbance of test compound and Ablank is the OD340 absorbance for the blank. Acontrol represents the OD340 absorbance of control.

[3] = system: PTZ-induced epileptic spikes; test: Electroencephalogram (EEG) after PTZ; assay type: in vivo, mice; conditions: 100 mg/kg i.p.
Source text: Mice sedated with urethane were subjected to aseptic craniotomy, involving the stereotaxic insertion of cortical screw electrodes aligned with bregma coordinates (anterior–posterior: +3.0 mm; mediolateral: ±1.5 mm) and a reference electrode (anterior–posterior: −2.0 mm; mediolateral: −1.5 mm). The electrodes were secured using dental acrylic, followed by a recovery period of 5–7 days for the animals before the instrumentation. The continuous EEG data were captured through using 8-channel bioamplifiers linked to a PowerLab 8/30 system (AD Instruments, Shanghai, China). After a 30 min acclimatization period in the recording chambers, initial activity levels were documented for 15–20 min. […] After 60 min, pentylenetetrazol (PTZ, 85 mg/kg i.p.) was administered, initiating seizure. Sampling of EEG signals occurred at a frequency of 200 Hz, utilizing a bandpass filter ranging from 0.1 to 60 Hz. Electrographic convulsions were characterized by spikes surpassing double the baseline amplitude, quantified by (1) the delay before the initial spike (seconds after PTZ); (2) the frequency of spikes (counts per 60 s period from the first spike) through established peak-detection methods.

[4] = system: neurons in CA1 and CA3 regions of the hippocampus; test: Silver staining of hippocampal tissue; assay type: in vivo; conditions: PTZ model mice, compared with PTZ group
Method: Following the creation of the PTZ model, a modified version of the silver impregnation staining technique was applied for silver staining, enabling the observation of changes in neuronal fibers and synapses throughout diseases. Brain tissue slices from each mouse, encased in paraffin, underwent deparaffinization using xylene and absolute ethanol, followed by a treatment in acidic formaldehyde, and then incubation in a glycine–silver mixture. Following the application of a reducing solution for staining, the samples were analyzed using an optical microscope. Against a yellow backdrop, nerve cells’ axons, dendrites, collagen fibers, and neurofibrillary tangles were colored in dark brown or black.

LDH = test: Immunofluorescence staining for LDH in hippocampus; assay type: in vivo; conditions: hippocampus CA1, PTZ model mice
Method: Brain samples were extracted, preserved in 4% paraformaldehyde for a day, and subsequently immersed in a 30% sucrose solution to dehydrate. Post OCT embedding, slices of brain tissue measuring 16 μm in thickness were sliced using a cryostat. Following the permeabilization using 0.5% TritonX-100 and subsequent blocking with 10% goat serum at ambient temperature to remove nonspecific staining, the tissue samples were subjected to overnight incubation at 4 °C with the primary antibody, LDHA (Proteintech (Rosemont, IL, USA), Cat No. 19987-1-AP, Lot: 00106920, rabbit anti-rat 1:200). On the next day, the slides underwent incubation using a secondary antibody. The slides underwent counterstaining using DAPI. […] slices were examined and visualized utilizing the VS200-BU Slide Scanner (Olympus Corporation, Tokyo, Japan).

[5] = 100 mg/kg i.p., mice, 0.5 h, read-out: MES model, protected mice/total mice, 0.5 h (converted)
[6] = 100 mg/kg i.p., mice, 1 h, read-out: MES model, protected mice/total mice, 1 h (converted)
[7] = 100 mg/kg i.p., mice, 2 h, read-out: MES model, protected mice/total mice, 2 h (converted)
[8] = 100 mg/kg i.p., mice, 3 h, read-out: MES model, protected mice/total mice, 3 h (converted)

Compound: COc1cc(/C=C/C(=O)N2CCN(CCCC(=O)N3CCN(C(c4ccc(F)cc4)c4ccc(F)cc4)CC3)CC2)cc(OC)c1OC [A9, (E)-1-(4-(bis(4-fluorophenyl)methyl)piperazin-1-yl)-4-(4-(3-(3,4,5-trimethoxyphenyl)acryloyl)piperazin-1-yl)butan-1-one]
- SCPTZ Latent Time (100 mg/kg, s) (scPTZ-induced seizures): 204.5 ± 12.6 s
- SCPTZ Protective Ratio (100 mg/kg) (scPTZ-induced seizures): 1/4
- responders at 100 mg/kg [1, 5]: 100%
- responders at 100 mg/kg [1, 6]: 75%
- responders at 100 mg/kg [1, 7]: 50%
- responders at 100 mg/kg [1, 8]: 0%
- ED50 ([1]; mice): 37.5 mg/kg
- TD50 at 30 min [2]: 305 mg/kg

Compound: COc1cc(/C=C/C(=O)N2CCN(CCCC(=O)N3CCN(c4cccc(Cl)c4Cl)CC3)CC2)cc(OC)c1OC [A12, (E)-1-(4-(2,3-dichlorophenyl)piperazin-1-yl)-4-(4-(3-(3,4,5-trimethoxyphenyl)acryloyl)piperazin-1-yl)butan-1-one]
- SCPTZ Latent Time (100 mg/kg, s) (scPTZ-induced seizures): 161.5 ± 24.0 s
- SCPTZ Protective Ratio (100 mg/kg) (scPTZ-induced seizures): 0/4
- LDH Inhibition Ratio (0.1 mM) (LDH enzyme): 41.9 ± 9.2%
- responders at 100 mg/kg [1, 5]: 100%
- responders at 100 mg/kg [1, 6]: 75%
- responders at 100 mg/kg [1, 7]: 75%
- responders at 100 mg/kg [1, 8]: 25%
- ED50 ([1]; mice): 54.7 mg/kg
- TD50 at 30 min [2]: 284 mg/kg

Compound: COc1cc(/C=C/C(=O)N2CCN(CCCC(=O)N3CCN(c4ccc(C(F)(F)F)cc4)CC3)CC2)cc(OC)c1OC [A14, (E)-1-(4-(4-(trifluoromethyl)phenyl)piperazin-1-yl)-4-(4-(3-(3,4,5-trimethoxyphenyl)acryloyl)piperazin-1-yl)butan-1-one]
- SCPTZ Latent Time (100 mg/kg, s) (scPTZ-induced seizures): 233.5 ± 18.3 s
- SCPTZ Protective Ratio (100 mg/kg) (scPTZ-induced seizures): 2/4
- LDH Inhibition Ratio (0.1 mM) (LDH enzyme): 42.6 ± 7.3%
- responders at 100 mg/kg [1, 5]: 100%
- responders at 100 mg/kg [1, 6]: 100%
- responders at 100 mg/kg [1, 7]: 75%
- responders at 100 mg/kg [1, 8]: 25%
- ED50 ([1]; mice): 52.4 mg/kg
- TD50 at 30 min [2]: 358 mg/kg

Compound: COc1cc(/C=C/C(=O)N2CCN(C(=O)CCC(=O)N3CCN(C(c4ccc(F)cc4)c4ccc(F)cc4)CC3)CC2)cc(OC)c1OC [B9, (E)-1-(4-(bis(4-fluorophenyl)methyl)piperazin-1-yl)-4-(4-(3-(3,4,5-trimethoxyphenyl)acryloyl)piperazin-1-yl)butane-1,4-dione]
- latency to the first PTZ-induced epileptic spike (EEG) ([3]; PTZ 85 mg/kg i.p. after 60 min): extended
- spike frequency within 60 s post-initial spike (EEG) ([3]; compared to PTZ controls): significantly reduced
- SCPTZ Latent Time (100 mg/kg, s) (scPTZ-induced seizures): 274.3 s and 274.3 ± 17.2 s
- SCPTZ Protective Ratio (100 mg/kg) (scPTZ-induced seizures): 3/4
- responders at 100 mg/kg ([1]; 0.5 h, read-out: MES model, protected mice/total mice, 0.5 h): 100%
- responders at 100 mg/kg ([1]; 1 h, read-out: MES model, protected mice/total mice, 1 h): 75%
- responders at 100 mg/kg ([1]; 2 h, read-out: MES model, protected mice/total mice, 2 h): 25%
- responders at 100 mg/kg ([1]; 3 h, read-out: MES model, protected mice/total mice, 3 h): 0%
- ED50 ([1]; mice): 23.6 mg/kg
- TD50 at 30 min [2]: 235 mg/kg
- silver staining, neurons in hippocampal CA1 and CA3 [4]: alleviated symptoms
- LDH immunolabelling intensity (LDH): lower than the values found in the PTZ group

Compound: COc1cc(/C=C/C(=O)N2CCN(C(=O)CCC(=O)N3CCN(c4cccc(Cl)c4Cl)CC3)CC2)cc(OC)c1OC [B12, (E)-1-(4-(2,3-dichlorophenyl)piperazin-1-yl)-4-(4-(3-(3,4,5-trimethoxyphenyl)acryloyl)piperazin-1-yl)butane-1,4-dione]
- SCPTZ Latent Time (100 mg/kg, s) (scPTZ-induced seizures): 230.3 ± 17.4 s
- SCPTZ Protective Ratio (100 mg/kg) (scPTZ-induced seizures): 1/4
- LDH Inhibition Ratio (0.1 mM) (LDH enzyme): 44.3 ± 6.5%
- responders at 100 mg/kg [1, 5]: 100%
- responders at 100 mg/kg [1, 6]: 75%
- responders at 100 mg/kg [1, 7]: 25%
- responders at 100 mg/kg [1, 8]: 25%
- ED50 ([1]; mice): 60.3 mg/kg
- TD50 at 30 min [2]: 417 mg/kg

Compound: COc1cc(/C=C/C(=O)N2CCN(C(=O)CCC(=O)N3CCN(c4ncccn4)CC3)CC2)cc(OC)c1OC [B16, (E)-1-(4-(pyrimidin-2-yl)piperazin-1-yl)-4-(4-(3-(3,4,5-trimethoxyphenyl)acryloyl)piperazin-1-yl)butane-1,4-dione]
- responders at 100 mg/kg [1, 5]: 75%
- responders at 100 mg/kg [1, 6]: 50%
- responders at 100 mg/kg [1, 7]: 50%
- responders at 100 mg/kg [1, 8]: 0%

Compound: COc1cc(/C=C/C(=O)N2CCN(C(=O)CCC(=O)N3CCC(c4noc5cc(F)ccc45)CC3)CC2)cc(OC)c1OC [B17, (E)-1-(4-(6-fluorobenzo[d]isoxazol-3-yl)piperidin-1-yl)-4-(4-(3-(3,4,5-trimethoxyphenyl)acryloyl)piperazin-1-yl)butane-1,4-dione]
- responders at 100 mg/kg [1, 5]: 50%
- responders at 100 mg/kg [1, 6]: 50%
- responders at 100 mg/kg [1, 7]: 25%
- responders at 100 mg/kg [1, 8]: 0%

Compound: (E)-3-(2,4,5-trimethoxyphenyl)allyl 4-oxo-4-(4-((E)-3-(3,4,5-trimethoxyphenyl)acryloyl)piperazin-1-yl)butanoate [B5]
- MES model, protected mice/total mice, 0.5 h ([1]; 100 mg/kg i.p., mice, 0.5 h): 3/4
- MES model, protected mice/total mice, 1 h ([1]; 100 mg/kg i.p., mice, 1 h): 3/4
- MES model, protected mice/total mice, 2 h ([1]; 100 mg/kg i.p., mice, 2 h): 2/4
- MES model, protected mice/total mice, 3 h ([1]; 100 mg/kg i.p., mice, 3 h): 0/4

Compound: (E)-3-(2,4,5-trimethoxyphenyl)allyl 4-oxo-4-(4-((E)-3-(3,4,5-trimethoxyphenyl)acryloyl)piperazin-1-yl)butanoate [B6]
- MES model, protected mice/total mice, 0.5 h ([1]; 100 mg/kg i.p., mice, 0.5 h): 2/4
- MES model, protected mice/total mice, 1 h ([1]; 100 mg/kg i.p., mice, 1 h): 1/4
- MES model, protected mice/total mice, 2 h ([1]; 100 mg/kg i.p., mice, 2 h): 1/4
- MES model, protected mice/total mice, 3 h ([1]; 100 mg/kg i.p., mice, 3 h): 0/4
